Test results published in the supplement of paper PMC10307832.

Key:
Experiment in all cases: relative viability (nuclei count vs DMSO), 5 days (fraction); higher = more cells survive
MIM1 = compound: CC1=CSC(=NC2CCCCC2)N1/N=C/C3=C(C(=C(C=C3)O)O)O [MIM1]
Outline: (§1)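 Lung cancer cell lines received five library-drug doses (not always all listed) spaced by √10, pinned on vehicle-anchored 1536-well plates after an overnight stay at 37 °C. Five days later, with no medium change, nuclei were Hoechst-stained, imaged at 4× and counted with MetaXpress. Viability is treated-well nuclei relative to vehicle-well nuclei, as a median across plates. Passing plates had control CV below 25% and at least one doubling.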

Luminespib = compound: CCNC(=O)c1noc(-c2cc(C(C)C)c(O)cc2O)c1-c1ccc(CN2CCOCC2)cc1 [Luminespib]
Outline: as §1

Saracatinib = compound: CN1CCN(CCOc2cc(OC3CCOCC3)c3c(Nc4c(Cl)ccc5c4OCO5)ncnc3c2)CC1 [Saracatinib]
Outline: as §1

Nilotinib = compound: Cc1cn(-c2cc(NC(=O)c3ccc(C)c(Nc4nccc(-c5cccnc5)n4)c3)cc(C(F)(F)F)c2)cn1 [Nilotinib]
Outline: as §1

Lenalidomide = compound: Nc1cccc2c1CN(C1CCC(=O)NC1=O)C2=O [Lenalidomide]
Outline: as §1

Row | Cell Line | relative viability (MIM1; 0.2 µM) | relative viability (MIM1; 0.6325 µM) | relative viability (MIM1; 2 µM) | relative viability (MIM1; 6.325 µM) | relative viability (MIM1; 20 µM) | relative viability (Luminespib; 0.002 µM) | relative viability (Luminespib; 0.006325 µM) | relative viability (Luminespib; 0.01 µM, anchor plate) | relative viability (Luminespib; 0.02 µM) | relative viability (Luminespib; 0.06325 µM) | relative viability (Luminespib; 0.2 µM) | relative viability (Saracatinib; 0.02 µM) | relative viability (Saracatinib; 0.2 µM) | relative viability (Saracatinib; 0.6325 µM) | relative viability (Saracatinib; 2 µM) | relative viability (Nilotinib; 0.001 µM) | relative viability (Nilotinib; 0.003162 µM) | relative viability (Nilotinib; 0.01 µM) | relative viability (Nilotinib; 0.03162 µM) | relative viability (Nilotinib; 0.1 µM) | relative viability (Lenalidomide; 0.253 µM) | relative viability (Lenalidomide; 0.8 µM) | relative viability (Lenalidomide; 2.53 µM) | relative viability (Lenalidomide; 8 µM)
1 | NCI-H1993 | 0.929 | 0.944 | 0.907 | 0.678 | 0.561 | 0.995 | 0.898 | 0.875 | 0.584 | 0.565 | 0.415 | 0.951 | 0.8 | 0.457 | 0.648 | 0.912 | 0.95 | 0.899 | 0.901 | 0.613 | 0.941 | 0.784 | 1.05 | 0.642
2 | NCI-H2228 | 0.999 | 0.978 | 1.31 | 0.517 | 0.172 | 1.23 | 0.87 | 0.148 | 0.451 | 0.172 | 0.157 | 1.04 | 0.825 | 0.9 | 0.841 | 0.773 | 1.5 | 1.36 | 0.698 | 0.511 | 0.795 | 1.07 | 1.22 | 0.89
3 | EMC-BAC-2 | 1.03 | 0.727 | 0.968 | 0.816 | 0.296 | 1 | 0.553 | 1.18 | 0.648 | 0.665 | 0.302 | 0.952 | 0.943 | 0.856 | 0.763 | 0.951 | 0.915 | 0.956 | 0.857 | 0.731 | 1.15 | 0.863 | 1 | 0.493
4 | EKVX | 0.94 | 1 | 0.881 | 0.604 | 0.511 | 0.956 | 0.724 | 0.851 | 0.655 | 0.878 | 0.356 | 1.03 | 0.738 | 0.966 | 0.631 | 0.823 | 1.16 | 1.15 | 0.854 | 0.659 | 0.988 | 0.803 | 1.05 | 0.846
5 | NCI-H2170 | 0.943 | 0.907 | 1.02 | 0.603 | 0.28 | 0.974 | 0.945 | 0.732 | 0.586 | 0.793 | 0.179 | 1 | 0.926 | 0.986 | 0.689 | 0.864 | 1.16 | 1.2 | 0.875 | 0.952 | 1 | 0.979 | 1.01 | 0.782
6 | NCI-H2085 | 0.995 | 0.974 | 1.02 | 0.817 | 0.947 | 0.964 | 0.931 | 0.466 | 0.779 | 0.576 | 0.384 | 1.02 | 0.893 | 1.09 | 0.967 | 1.03 | 1.06 | 1.12 | 0.91 | 0.754 | 0.975 | 0.811 | 1.06 | 0.944
7 | LCLC-97TM1 | 1.02 | 0.767 | 0.703 | 0.456 | 0.144 | 0.878 | 0.814 | 0.77 | 0.466 | 0.528 | 0.0858 | 0.986 | 0.712 | 1.19 | 0.974 | – | 0.984 | 1.06 | 0.834 | 0.368 | 0.943 | 0.932 | 1.05 | 0.616
